Six compounds from patent publication US20040053822A1, “Inducing cellular immune responses to mage2/3 using peptide and nucleic acid compositions” (priority 2002, published 2004) can be followed below.

A value given as a limit tells only on which side of the number the result lay.

One experiment concerns the target HLA-A*6801 (Homo sapiens, UniProt P04439, A269V/D185E/E176V/E277Q/E87N/F33Y/G231S/I121M/I166T/I218V/L180W/L300P/L318F/N151K/P208A/P217A/Q86R/R169H/T345S). As to the kind of experiment: Purified HLA class I peptide binding assay, A*6801. The conditions noted are these: binding affinity, HLA-A3 supermotif-bearing peptides.
Another experiment concerns the target HLA-A*3301 (Homo sapiens, UniProt P04439, A270S/D185E/E176V/E277Q/E87N/F33T/G231S/H175R/I121M/I218V/I322F/K168Q/K210R/L300P/L318F/M331R/P217A/Q86R/Q94H/R138Q/T323A/T345S/T97I/V358M/Y195H). As to the kind of experiment: Purified HLA class I peptide binding assay, A*3301. The conditions noted are these: binding affinity, HLA-A3 supermotif-bearing peptides.
The target of the next experiment is HLA-A*0301 (Homo sapiens, UniProt P04439). As to the kind of experiment: Purified HLA class I peptide binding assay, A*0301. The note with it: binding affinity, HLA-A3 supermotif-bearing peptides.
The target in another experiment is HLA-A*3101 (Homo sapiens, UniProt P04439, A270S/D185E/E176V/E277Q/F33T/G231S/G80R/H175R/I121M/I218V/I322F/K168Q/L300P/L318F/M331R/P217A/Q94H/R138Q/T323A/T345S/T97I/V358M). As to the kind of experiment: Purified HLA class I peptide binding assay, A*3101. The conditions noted are these: binding affinity, HLA-A3 supermotif-bearing peptides.
The target of another experiment is HLA-A*1101 (Homo sapiens, UniProt P04439, A114D/D185E/E176A/F33Y/L180Q/S129P/T187R). As to the kind of experiment: Purified HLA class I peptide binding assay, A*1101. The conditions noted are these: binding affinity, HLA-A3 supermotif-bearing peptides.
For a further experiment, the target named is HLA-A*0202 (Homo sapiens, UniProt P04439, D140Y/D185E/D98H/E176V/E277Q/G131W/G231S/I119L/I121R/I166T/I218V/L180W/L300P/L318F/N151K/N90K/P208A/P217A/Q67R/Q86G/Q94H/R138H/R169H/T345S). As to the kind of experiment: Purified HLA class I peptide binding assay, A*0202. The conditions noted are these: binding affinity, A2 supermotif peptides and analogs.
A further experiment has as its target HLA-A*0206 (Homo sapiens, UniProt P04439, D140Y/D185E/D98H/E176V/E277Q/F33Y/G131W/G231S/I119V/I121R/I166T/I218V/L300P/L318F/N151K/N90K/P208A/P217A/Q86G/Q94H/R138H/R169H/T345S). As to the kind of experiment: Purified HLA class I peptide binding assay, A*0206. The conditions noted are these: binding affinity, A2 supermotif peptides and analogs.
The target of the next experiment is HLA-A*0203 (Homo sapiens, UniProt P04439, A173T/D140Y/D185E/D98H/E277Q/G131W/G231S/I119V/I121R/I166T/I218V/L180W/L300P/L318F/N151K/N90K/P208A/P217A/Q86G/Q94H/R138H/R169H/T345S). As to the kind of experiment: Purified HLA class I peptide binding assay, A*0203. The conditions noted are these: binding affinity, A2 supermotif peptides and analogs.
The target of the next experiment is HLA-A*6802 (Homo sapiens, UniProt P04439, A269V/D140Y/D185E/E176V/E277Q/E87N/F33Y/G231S/I121R/I166T/I218V/L180W/L300P/L318F/N151K/P208A/P217A/Q86R/R138H/R169H/S129P/T345S/V36M). As to the kind of experiment: Purified HLA class I peptide binding assay, A*6802. The note with it: binding affinity, A2 supermotif peptides and analogs.
In a further experiment the target is HLA-DRB1*0401 (DR4w4) (Homo sapiens, UniProt P01903+P01911, A100K/A169T/F76Y/I96L/K127E/L162R/M171V/N62H/P40V/Q125Y/R42H/S133A/S149N/S66Y/V115G/V209L/W38E). As to the kind of experiment: Purified HLA class II peptide binding assay, DRB1*0401.
The next experiment deals with HLA-A*0201 (Homo sapiens, UniProt P04439, D140Y/D185E/D98H/E176V/E277Q/G131W/G231S/I119V/I121R/I166T/I218V/L300P/L318F/N151K/N90K/P208A/P217A/Q86G/Q94H/R138H/R169H/T345S). As to the kind of experiment: Purified HLA class I peptide binding assay, A*0201. The conditions noted are these: binding affinity, A2 supermotif peptides and analogs.
Experiment [1] has as its system peptide-specific CTL from PBMC. As to the kind of experiment: CTL immunogenicity of A3, B7 supermotif and A1, A24 motif peptides (methodology analogous to A2). It is filed as cell-based, human. The conditions noted are these: positive/tested.
Description: HLA-A3 supermotif-bearing cross-reactive binding peptides are also evaluated for immunogenicity using methodology analogous for that used to evaluate the immunogenicity of the HLA-A2 supermotif peptides.
Analogous methodology, as appreciated by one of ordinary skill in the art, is employed to determine immunogenicity of peptides bearing HLA class I motifs and/or supermotifs set out herein.

The term IC50 denotes the concentration needed to halve the response being measured. Low readings indicate greater potency, high ones weaker potency. `CC[C@H](C)[C@H](NC(=O)[C@H](CC(C)C)NC(=O)[C@H](C)N)C(=O)N[C@@H](CCC(=O)O)C(=O)N[C@H](C(=O)N[C@@H](CO)C(=O)N[C@@H](Cc1ccc(O)cc1)C(=O)N[C@H](C(=O)N[C@@H](CCCCN)C(=O)O)C(C)C)[C@@H](C)O`: the half-maximal inhibitory concentration (IC50) is 286 nM on HLA-A*6801; above 10000 nM on HLA-A*3301; 136 nM on HLA-A*0301; 900 nM at HLA-A*3101; 32 nM at HLA-A*1101.

Consider `CC[C@H](C)[C@H](NC(=O)[C@H](CC(C)C)NC(=O)[C@H](C)N)C(=O)N[C@@H](CCC(=O)O)C(=O)N[C@H](C(=O)N[C@@H](CO)C(=O)N[C@@H](Cc1ccc(O)cc1)C(=O)N[C@H](C(=O)N[C@@H](CCCCN)C(=O)N[C@H](C(=O)O)C(C)C)C(C)C)[C@@H](C)O`, for which the IC50 at HLA-A*0202 came to 729 nM; at HLA-A*0206 it was 1950 nM; on HLA-A*0203, 125 nM; at HLA-A*6802, 3080 nM.

For the compound `CC[C@H](C)[C@H](NC(=O)[C@H](C)NC(=O)[C@@H](NC(=O)[C@@H](NC(=O)[C@H](C)NC(=O)[C@H](CC(C)C)NC(=O)[C@@H](NC(=O)[C@@H](NC(=O)[C@@H](NC(=O)[C@H](CC(C)C)NC(=O)[C@@H](N)CC(C)C)[C@@H](C)CC)[C@@H](C)CC)C(C)C)[C@@H](C)CC)[C@@H](C)CC)C(=O)N[C@@H](CCC(=O)O)C(=O)NCC(=O)N[C@@H](CC(=O)O)C(=O)N[C@@H](CS)C(=O)O`, the IC50 on HLA-DRB1*0401 (DR4w4) was determined as 3750 nM.

For the compound `CC[C@H](C)[C@H](NC(=O)[C@H](Cc1ccc(O)cc1)NC(=O)[C@H](CC(C)C)NC(=O)[C@@H](N)Cc1c[nH]cn1)C(=O)N[C@@H](Cc1ccccc1)C(=O)N[C@@H](C)C(=O)N[C@H](C(=O)N[C@@H](CS)C(=O)N[C@@H](CC(C)C)C(=O)NCC(=O)N[C@@H](CC(C)C)C(=O)O)[C@@H](C)O`, the half-inhibitory concentration (IC50) at HLA-A*0201 is 56 nM; on HLA-A*0206 it was above 10000 nM; at HLA-A*0203 it was 769 nM; on HLA-A*6802 it was 4490 nM.

With `CC(C)C[C@H](NC(=O)[C@H](CCC(=O)O)NC(=O)[C@H](C)NC(=O)[C@H](CC(C)C)NC(=O)[C@@H](N)CCCCN)C(=O)N[C@H](C(=O)N[C@@H](Cc1c[nH]cn1)C(=O)N[C@@H](Cc1ccccc1)C(=O)N[C@H](C(=O)O)C(C)C)C(C)C`, the 50% inhibitory concentration (IC50) on HLA-A*0202 was determined as 13 nM; on HLA-A*0206 it was 15 nM; on HLA-A*0203, 22 nM; at HLA-A*6802, 73 nM.

For the compound `CC[C@H](C)[C@H](NC(=O)[C@@H](NC(=O)[C@@H](N)[C@@H](C)O)[C@@H](C)O)C(=O)N[C@@H](CC(N)=O)C(=O)N[C@@H](Cc1ccc(O)cc1)C(=O)N[C@H](C(=O)N[C@@H](CC(C)C)C(=O)N[C@@H](Cc1c[nH]c2ccccc12)C(=O)N[C@@H](CCCNC(=N)N)C(=O)O)[C@@H](C)O`, the “CTL Tumor” value in [1] (CTL recognition of tumor targets) is 2/5. The “CTL Wild-type” value in [1] (CTL recognition of wild-type peptide) is reported as 7/7.
